What all share (type): biochemical
In experiment [1] the target is T1, wild type (wt) alpha-galactosidase (Homo sapiens, UniProt P06280).
T1 construct: The lysates were used as a source for wild type (wt) alpha-galactosidase; endogenous in cells; host or cells: HL60 (ECACC No. 98070106) lysate
T1 sequence (P06280 32-429): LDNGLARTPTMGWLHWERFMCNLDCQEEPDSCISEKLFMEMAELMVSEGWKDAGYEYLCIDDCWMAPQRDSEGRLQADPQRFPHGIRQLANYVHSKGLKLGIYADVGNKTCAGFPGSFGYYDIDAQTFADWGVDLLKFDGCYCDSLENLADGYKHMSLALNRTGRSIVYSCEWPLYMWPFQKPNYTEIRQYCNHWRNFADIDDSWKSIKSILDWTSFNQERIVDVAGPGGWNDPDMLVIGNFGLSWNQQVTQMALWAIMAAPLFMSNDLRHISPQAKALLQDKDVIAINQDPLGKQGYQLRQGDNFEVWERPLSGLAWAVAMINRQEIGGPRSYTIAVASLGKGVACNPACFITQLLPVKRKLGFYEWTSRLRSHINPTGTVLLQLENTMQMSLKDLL
Kind of experiment: alpha-galactosidase activity assay in HL60 lysate (4MU-α-D-gal). Conditions: at a concentration of 100 uM, 0.5 mM 4MU-α-D-gal, pH 4.5.

The target of experiment [2] is T2, wild type (wt) beta-glucocerebrosidase (Homo sapiens, UniProt P04062).
T2 construct: The lysates were used as a source for wild type (wt) beta-glucocerebrosidase; endogenous in cells; host or cells: HL60 (ECACC No. 98070106) lysate
T2 sequence (P04062 40-536): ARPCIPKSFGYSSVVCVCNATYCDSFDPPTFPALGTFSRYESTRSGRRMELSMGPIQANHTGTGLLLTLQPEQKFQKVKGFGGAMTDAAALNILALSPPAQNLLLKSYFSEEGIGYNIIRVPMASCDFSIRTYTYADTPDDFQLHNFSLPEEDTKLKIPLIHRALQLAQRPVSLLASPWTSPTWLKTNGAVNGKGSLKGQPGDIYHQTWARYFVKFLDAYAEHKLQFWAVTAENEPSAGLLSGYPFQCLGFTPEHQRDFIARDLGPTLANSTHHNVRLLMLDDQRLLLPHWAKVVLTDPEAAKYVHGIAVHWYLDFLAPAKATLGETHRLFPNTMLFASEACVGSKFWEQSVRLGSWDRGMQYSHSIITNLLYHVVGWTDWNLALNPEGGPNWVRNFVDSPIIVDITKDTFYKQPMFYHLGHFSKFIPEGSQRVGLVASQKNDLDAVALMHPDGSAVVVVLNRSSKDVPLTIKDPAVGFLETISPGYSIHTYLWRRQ
Kind of experiment: beta-glucocerebrosidase activity assay in HL60 lysate (4MU-β-D-glc).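 Also: fluorometric read-out of 4MU liberated from the substrate (ex 360 nm, em 450 nm) after 37 °C incubation, reaction stopped with sodium carbonate.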 Conditions: at a concentration of 100 μM, 0.5 mM 4MU-β-D-glc.

The subject of experiment [3] is α-D-glucosidase (Bacillus sterothermophilus). The experiment is described as follows: glycosidase assay with p-nitrophenyl substrates (Example 2). Conditions: 10 μl of 5 mM iminosugar solution in 70 μl incubation mixture; 20° C. The procedure:
(§1) The assays were conducted as described by Watson et al. 1997, Phytochemistry 46: 255-259 using p-nitrophenyl-substrates. Assays were carried out in microtitre plates. Enzymes were assayed in 0.1M citric acid/0.2M di-sodium hydrogen phosphate (Mcllvaine) buffers at the optimum pH for the enzyme. All assays were carried out at 20° C. All enzymes and substrates were purchased from Sigma Aldrich Chemicals Limited. The incubation mixture consisted of 10 μl of enzyme solution, 10 μl of the iminosugars solution (made up in deionised water at 5 mM) and 50 μl of the appropriate 5 mM p-nitrophenyl substrate made up in McIlvaine buffer at the optimum pH for the enzyme. The reactions were stopped with 0.4M glycine (pH 10.4) during the exponential phase of the reaction, which was determined at the beginning of the assay using blanks with water, which were incubated for a range of time periods to measure the reaction rate using 5 mM substrate solution. Absorbances were read at 405 nm. Water was substituted for the inhibitors in the blanks.
(§2) The glycosidases used were α-D-glucosidase (yeast), α-D-glucosidase (Bacillus sterothermophilus), α-D-glucosidase (rice), amyloglucosidase (Aspergillus niger), β-D-glucosidase (almond), α-D-galactosidase (green coffee beans), β-D-galactosidase (bovine liver), α-L-fucosidase (bovine kidney), α-D-mannosidase (Jack bean), β-D-mannosidase (Cellullomonas fimi), Naringinase (Penicillium decumbens), N-acetyl-β-D-glucosaminidase (Bovine kidney), N-acetyl-β-D-glucosaminidase (Aspergillus oryzae) and N-acetyl-β-D-glucosaminidase (Jack bean)

Experiment [4] has as its target T3, α-D-galactosidase (green coffee beans) (Coffea arabica, UniProt Q42656).
T3 construct: purchased Sigma Aldrich Chemicals Limited
Described as above. Conditions: 10 μl of 5 mM iminosugar solution in 70 μl incubation mixture; 20° C.; read-out: Promotion of glycosidase activity: α-D-galactosidase (Green coffee bean). On the procedure: as §1, §2

T3 sequence (Q42656 16-378): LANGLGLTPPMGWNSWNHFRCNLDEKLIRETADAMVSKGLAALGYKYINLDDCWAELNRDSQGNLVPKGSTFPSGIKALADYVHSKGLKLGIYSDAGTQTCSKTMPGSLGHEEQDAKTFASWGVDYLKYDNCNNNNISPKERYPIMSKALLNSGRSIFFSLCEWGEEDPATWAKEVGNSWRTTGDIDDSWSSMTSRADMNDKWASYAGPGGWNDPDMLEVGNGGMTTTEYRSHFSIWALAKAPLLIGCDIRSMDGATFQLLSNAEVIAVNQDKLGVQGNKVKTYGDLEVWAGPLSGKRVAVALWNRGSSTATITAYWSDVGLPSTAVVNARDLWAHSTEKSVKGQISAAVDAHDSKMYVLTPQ

Regarding `OCCN1[C@H](CO)[C@H](O)[C@H](O)[C@H]1CO` [Compound 168, (2R,3R,4S,5R)-1-(2-hydroxyethyl)-2,5-bis(hydroxymethyl)pyrrolidine-3,4-diol], in experiment [1], the inhibition – broadly, how much of the control response was suppressed – at 100 µM is above 50%.

On to `O[C@@H]1[C@@H](O)[C@H](O)[C@]2(O)CC[C@H]1N2` [Compound 21, (1R,2S,3R,4S,5R)-8-azabicyclo[3.2.1]octane-1,2,3,4-tetraol], for which the inhibition at 100 µM in experiment [2] and in experiment [1] was above 50% each time.

In the case of `N[C@@H]1CN[C@H](CO)C1` [Compound 344, ((2S,4S)-4-aminopyrrolidin-2-yl)methanol], the “Promotion of glycosidase activity: α-D-glucosidase (Bacillus sterothermophilus)” value (“Promotion of glycosidase activity” for short) in experiment [3] was 71 % increase in absorbance compared to the water controls.

With `CNC(=O)[C@H]1N[C@H](CO)[C@@H](O)[C@H](O)[C@@H]1O` [Compound 246, (2S,3R,4S,5R,6R)-3,4,5-trihydroxy-6-(hydroxymethyl)-N-methylpiperidine-2-carboxamide], the inhibition at 100 µM in experiment [1] is above 50%.

As to `CN1C[C@@H](O)[C@H](O)[C@@H](O)C1` [Compound 253, (3R,4r,5S)-1-methylpiperidine-3,4,5-triol], in experiment [3], the “Promotion of glycosidase activity” value is listed as 56 % increase in absorbance compared to the water controls.

Compound `OC[C@H]1N[C@H](CO)[C@H](O)C(O)[C@H]1O` (stereo partly drawn) [Compound 189, (2R,3S,5S,6R)-2,6-bis(hydroxymethyl)piperidine-3,4,5-triol] returned an inhibition at 100 µM in experiment [1] above 50%.

As to `CCCCCCCCCN1C[C@H](NC(C)=O)[C@@H](O)[C@@H]1CO` [Compound 338, N-((3S,4R,5S)-4-hydroxy-5-(hydroxymethyl)-1-nonylpyrrolidin-3-yl)acetamide], in experiment [4], the activation at 714 µM was found to be 35%. For the same compound, the “Promotion of glycosidase activity” value in experiment [3] is 170 % increase in absorbance compared to the water controls.

`C[C@H]1NC[C@H](O)[C@@H](O)[C@H]1O` [Compound 258, (2R,3S,4R,5S)-2-methylpiperidine-3,4,5-triol] came in with an inhibition at 100 µM in experiment [1] above 50%.

With `N[C@H]1CN(Cc2ccccc2)[C@@H](CO)[C@@H]1O` [Compound 312, (2S,3R,4S)-4-amino-1-benzyl-2-(hydroxymethyl)pyrrolidin-3-ol], the activation at 714 µM in experiment [4] came to 30%. The “Promotion of glycosidase activity” value in experiment [3] is on record as 52 % increase in absorbance compared to the water controls.

For the compound `CC(=O)N[C@H]1C[C@@H](CO)N(CCO)C1` [Compound 347, N-((3S,5S)-1-(2-hydroxyethyl)-5-(hydroxymethyl)pyrrolidin-3-yl)acetamide], the “Promotion of glycosidase activity” value in experiment [3] is recorded as 68 % increase in absorbance compared to the water controls.

As to `CCCCN1C[C@@H](NC(C)=O)C[C@H]1CO` [Compound 350, N-((3S,5S)-1-butyl-5-(hydroxymethyl)pyrrolidin-3-yl)acetamide], the activation at 714 µM in experiment [4] worked out at 38%. Also, in experiment [3], the “Promotion of glycosidase activity” value was 160 % increase in absorbance compared to the water controls.

For the compound `O=C1N[C@H](CO)[C@@H](O)[C@H](O)[C@@H]1O` [Compound 112, (3S,4S,5R,6R)-3,4,5-trihydroxy-6-(hydroxymethyl)piperidin-2-one], the inhibition at 100 µM in experiment [1] is above 50%.

Regarding `N[C@@H]1CN(Cc2ccccc2)[C@H](CO)[C@H]1O` [Compound 370, (2R,3S,4R)-4-amino-1-benzyl-2-(hydroxymethyl)pyrrolidin-3-ol], in experiment [4], the activation at 714 µM is 43%. For the same compound, the “Promotion of glycosidase activity” value in experiment [3] was 81 % increase in absorbance compared to the water controls.

Take `C[C@H]1N[C@@H](CO)[C@H](O)[C@H](O)[C@H]1O` [Compound 264, (2S,3S,4R,5S,6R)-2-(hydroxymethyl)-6-methylpiperidine-3,4,5-triol]: in experiment [1], the inhibition at 100 µM was above 50%.

In turn, `C[C@H]1N[C@H](CO)[C@H](O)[C@H](O)[C@H]1O` [Compound 263, (2R,3S,4R,5S,6R)-2-(hydroxymethyl)-6-methylpiperidine-3,4,5-triol] displayed an inhibition at 100 µM in experiment [1] above 50%.

In experiment [1], `OC[C@H]1NC[C@@H](O)[C@H](O)[C@H]1O` [Compound 447, (2R,3S,4S,5R)-2-(hydroxymethyl)piperidine-3,4,5-triol] returned an inhibition at 100 µM above 50%.

On to `C[C@@H]1N[C@@H](CO)[C@H](O)[C@H](O)[C@H]1O` [Compound 269, (2S,3S,4R,5S,6S)-2-(hydroxymethyl)-6-methylpiperidine-3,4,5-triol], for which, in experiment [1], the inhibition at 100 µM is above 50%.

Compound `OC[C@H]1NC[C@H](O)[C@@H](O)[C@H]1O` [Compound 215, (2R,3S,4R,5S)-2-(hydroxymethyl)piperidine-3,4,5-triol] displayed an inhibition at 100 µM in experiment [1] above 50%.

In the case of `CCCCOC(=O)[C@@H]1[C@@H](O)[C@H](O)[C@@H](O)CN1CCCC` [Compound 205, (2S,3R,4R,5S)-butyl 1-butyl-3,4,5-trihydroxypiperidine-2-carboxylate], in experiment [3], the “Promotion of glycosidase activity” value is recorded as 60 % increase in absorbance compared to the water controls.

`C=CCC[C@H]1N[C@@H](CO)[C@H](O)[C@@H](O)[C@@H]1O` [Compound 380, (2R,3R,4S,5S,6S)-2-(but-3-enyl)-6-(hydroxymethyl)piperidine-3,4,5-triol] returned an inhibition at 100 µM in experiment [1] above 50%.

The record behind these values is patent US20110237538A1, “TREATMENT OF LYSOSOMAL STORAGE DISORDERS AND OTHER PROTEOSTATIC DISEASES” (SUMMIT CORPORATION PLC, priority 2008, published 2011).
